What was measured:
[1] = molecular target: 5'-AMP-activated protein kinase catalytic subunit alpha-2 (Homo sapiens) (UniProt P54646); experiment: Selectivity interaction (KinomeScan (DiscoverX)) EUB0000311b PRKAA2; settings: at 1 µM
[2] = molecular target: T1, NUAK family SNF1-like kinase 1 (Homo sapiens) (UniProt O60285); experiment: Selectivity interaction (KinomeScan (DiscoverX)) EUB0001049a NUAK1; settings: at 1 µM
T1 sequence (whole entry): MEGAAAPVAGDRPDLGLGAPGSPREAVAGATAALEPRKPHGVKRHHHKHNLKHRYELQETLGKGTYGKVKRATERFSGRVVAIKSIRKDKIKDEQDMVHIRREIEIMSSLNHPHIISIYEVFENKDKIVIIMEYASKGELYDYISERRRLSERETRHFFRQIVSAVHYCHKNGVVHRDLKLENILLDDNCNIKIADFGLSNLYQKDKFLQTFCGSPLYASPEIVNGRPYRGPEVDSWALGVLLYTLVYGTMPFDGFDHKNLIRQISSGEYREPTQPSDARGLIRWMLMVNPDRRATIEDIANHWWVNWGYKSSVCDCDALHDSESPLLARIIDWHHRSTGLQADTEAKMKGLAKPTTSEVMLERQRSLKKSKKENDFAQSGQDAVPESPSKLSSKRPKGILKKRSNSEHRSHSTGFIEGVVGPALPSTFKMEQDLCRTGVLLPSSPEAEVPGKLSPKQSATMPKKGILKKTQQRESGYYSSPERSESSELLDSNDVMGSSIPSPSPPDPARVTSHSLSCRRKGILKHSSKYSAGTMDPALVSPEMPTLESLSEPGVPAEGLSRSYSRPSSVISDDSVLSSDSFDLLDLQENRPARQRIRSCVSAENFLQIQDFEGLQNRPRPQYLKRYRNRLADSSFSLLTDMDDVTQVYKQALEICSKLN

[3] = molecular target: Serine/threonine-protein kinase 16 (Homo sapiens, UniProt O75716); experiment: Selectivity interaction (KinomeScan (DiscoverX)) EUB0000666a STK16; settings: at 10 µM
Chain of Serine/threonine-protein kinase 16 (O75716 whole entry): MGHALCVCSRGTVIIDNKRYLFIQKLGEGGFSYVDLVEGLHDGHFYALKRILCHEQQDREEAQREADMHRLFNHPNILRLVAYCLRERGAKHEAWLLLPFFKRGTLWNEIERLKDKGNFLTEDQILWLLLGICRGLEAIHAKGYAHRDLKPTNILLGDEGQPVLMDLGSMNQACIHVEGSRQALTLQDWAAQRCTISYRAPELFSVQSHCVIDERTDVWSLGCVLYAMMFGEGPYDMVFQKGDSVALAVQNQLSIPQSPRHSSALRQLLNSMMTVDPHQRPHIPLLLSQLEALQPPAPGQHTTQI

[4] = molecular target: T2, Serine/threonine-protein kinase PLK4 (Homo sapiens) (UniProt O00444); experiment: Selectivity interaction (KinomeScan (DiscoverX)) EUB0000092b PLK4; settings: at 10 µM
T2 sequence (whole entry): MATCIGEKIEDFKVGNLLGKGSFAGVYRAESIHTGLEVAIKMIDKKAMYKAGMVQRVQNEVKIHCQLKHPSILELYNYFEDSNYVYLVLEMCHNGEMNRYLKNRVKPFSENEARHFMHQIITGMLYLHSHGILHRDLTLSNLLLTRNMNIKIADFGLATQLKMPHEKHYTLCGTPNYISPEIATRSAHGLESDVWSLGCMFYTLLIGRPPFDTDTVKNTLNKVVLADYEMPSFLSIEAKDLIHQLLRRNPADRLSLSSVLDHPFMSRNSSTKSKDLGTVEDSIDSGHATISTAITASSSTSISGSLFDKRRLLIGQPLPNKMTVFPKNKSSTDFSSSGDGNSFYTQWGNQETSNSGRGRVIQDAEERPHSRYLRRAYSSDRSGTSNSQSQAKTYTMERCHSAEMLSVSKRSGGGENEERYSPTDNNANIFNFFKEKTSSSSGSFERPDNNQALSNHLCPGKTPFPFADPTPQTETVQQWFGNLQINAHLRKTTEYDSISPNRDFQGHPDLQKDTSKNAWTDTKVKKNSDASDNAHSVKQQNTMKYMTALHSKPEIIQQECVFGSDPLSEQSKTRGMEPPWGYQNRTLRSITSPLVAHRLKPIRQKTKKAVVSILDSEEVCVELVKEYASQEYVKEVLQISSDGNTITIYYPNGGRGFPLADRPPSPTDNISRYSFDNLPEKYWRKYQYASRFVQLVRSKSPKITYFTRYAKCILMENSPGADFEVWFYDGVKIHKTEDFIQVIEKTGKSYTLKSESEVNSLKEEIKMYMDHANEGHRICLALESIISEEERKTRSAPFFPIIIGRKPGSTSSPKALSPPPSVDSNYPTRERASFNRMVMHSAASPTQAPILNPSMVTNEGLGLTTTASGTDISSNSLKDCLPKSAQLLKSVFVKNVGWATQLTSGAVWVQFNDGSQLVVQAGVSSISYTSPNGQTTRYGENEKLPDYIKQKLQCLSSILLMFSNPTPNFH

[5] = molecular target: G protein-coupled receptor kinase 4 (Homo sapiens) (UniProt P32298); experiment: Selectivity interaction (KinomeScan (DiscoverX)) EUB0001619a GRK4; settings: at 1 µM
Chain of G protein-coupled receptor kinase 4 (Homo sapiens) (P32298 whole entry, looked up): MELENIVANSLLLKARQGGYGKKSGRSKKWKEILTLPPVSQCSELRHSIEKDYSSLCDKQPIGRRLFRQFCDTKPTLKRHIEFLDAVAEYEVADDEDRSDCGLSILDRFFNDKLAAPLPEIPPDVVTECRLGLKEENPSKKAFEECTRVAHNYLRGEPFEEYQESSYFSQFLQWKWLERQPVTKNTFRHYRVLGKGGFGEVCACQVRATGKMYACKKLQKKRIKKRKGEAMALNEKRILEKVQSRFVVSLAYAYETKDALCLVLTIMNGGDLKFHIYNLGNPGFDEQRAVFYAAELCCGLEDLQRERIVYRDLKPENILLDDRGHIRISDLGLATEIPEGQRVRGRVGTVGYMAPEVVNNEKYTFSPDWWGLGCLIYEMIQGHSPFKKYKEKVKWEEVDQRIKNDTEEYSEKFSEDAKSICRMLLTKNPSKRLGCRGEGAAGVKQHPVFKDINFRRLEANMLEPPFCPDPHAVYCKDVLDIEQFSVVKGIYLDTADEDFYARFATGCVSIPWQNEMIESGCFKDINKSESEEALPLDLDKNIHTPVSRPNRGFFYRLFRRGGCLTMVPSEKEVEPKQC

[6] = molecular target: T3, Tyrosine-protein kinase JAK3 (Homo sapiens) (UniProt P52333); experiment: Selectivity interaction (SelectScreen profiling (Invitrogen)) EUB0000607a JAK3; settings: at 2 µM
T3 sequence (whole entry): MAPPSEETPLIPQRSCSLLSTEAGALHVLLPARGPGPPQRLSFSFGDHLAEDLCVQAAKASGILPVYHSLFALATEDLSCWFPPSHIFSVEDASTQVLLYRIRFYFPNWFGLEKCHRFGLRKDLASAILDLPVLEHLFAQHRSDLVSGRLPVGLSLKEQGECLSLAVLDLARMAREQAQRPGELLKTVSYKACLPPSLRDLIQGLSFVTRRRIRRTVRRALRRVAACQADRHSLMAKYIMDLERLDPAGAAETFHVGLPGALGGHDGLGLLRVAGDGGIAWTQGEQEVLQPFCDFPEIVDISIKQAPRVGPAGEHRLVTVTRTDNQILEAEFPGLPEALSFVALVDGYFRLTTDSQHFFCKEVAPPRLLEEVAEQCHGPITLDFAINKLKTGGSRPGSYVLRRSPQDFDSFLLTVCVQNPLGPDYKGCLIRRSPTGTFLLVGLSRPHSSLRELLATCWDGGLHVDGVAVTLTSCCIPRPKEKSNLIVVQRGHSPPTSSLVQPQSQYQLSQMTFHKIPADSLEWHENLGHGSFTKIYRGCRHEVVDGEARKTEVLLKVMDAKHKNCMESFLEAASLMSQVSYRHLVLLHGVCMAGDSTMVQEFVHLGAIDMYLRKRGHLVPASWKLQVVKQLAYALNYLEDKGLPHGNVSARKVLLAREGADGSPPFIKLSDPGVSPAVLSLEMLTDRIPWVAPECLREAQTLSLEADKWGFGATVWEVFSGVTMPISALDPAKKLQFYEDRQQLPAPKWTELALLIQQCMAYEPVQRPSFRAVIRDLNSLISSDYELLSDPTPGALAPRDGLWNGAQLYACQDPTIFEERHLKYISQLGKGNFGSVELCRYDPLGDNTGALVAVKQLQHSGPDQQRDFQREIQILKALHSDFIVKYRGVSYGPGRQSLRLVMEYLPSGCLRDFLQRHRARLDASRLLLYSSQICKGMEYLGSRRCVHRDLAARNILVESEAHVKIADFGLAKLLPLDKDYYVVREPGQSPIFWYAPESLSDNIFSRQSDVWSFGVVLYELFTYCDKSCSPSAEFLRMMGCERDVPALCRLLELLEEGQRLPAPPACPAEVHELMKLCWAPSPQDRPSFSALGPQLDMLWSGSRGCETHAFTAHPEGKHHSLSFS

Chain of 5'-AMP-activated protein kinase catalytic subunit alpha-2 (Homo sapiens) (P54646 whole entry, looked up): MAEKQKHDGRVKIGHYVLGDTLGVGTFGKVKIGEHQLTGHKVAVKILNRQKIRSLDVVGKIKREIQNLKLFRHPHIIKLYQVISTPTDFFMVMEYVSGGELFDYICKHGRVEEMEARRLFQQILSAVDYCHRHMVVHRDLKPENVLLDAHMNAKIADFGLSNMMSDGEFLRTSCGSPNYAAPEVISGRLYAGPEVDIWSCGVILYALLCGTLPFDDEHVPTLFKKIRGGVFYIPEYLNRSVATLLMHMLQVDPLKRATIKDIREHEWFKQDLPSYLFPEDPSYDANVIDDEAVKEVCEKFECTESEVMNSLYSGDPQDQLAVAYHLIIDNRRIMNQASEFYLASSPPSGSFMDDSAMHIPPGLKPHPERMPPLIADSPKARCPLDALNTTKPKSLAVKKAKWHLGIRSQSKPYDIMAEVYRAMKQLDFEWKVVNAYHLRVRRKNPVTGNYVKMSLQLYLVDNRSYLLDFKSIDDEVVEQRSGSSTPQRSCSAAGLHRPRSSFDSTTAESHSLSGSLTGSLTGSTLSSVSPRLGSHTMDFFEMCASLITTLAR

CCc1ccccc1C(=O)Nc1n[nH]c2c(C)c(F)c(C3C(C#N)=C(C)N(C)C(C)=C3C#N)cc12 [BAY-3827]
% of control [1]: 0%

COc1cc(Nc2nc(C)cc(-c3cnn4nc(OC)ccc34)n2)cc(C(F)(F)F)c1
% of control [2]: 100%

O=C(NOC[C@H](O)CO)c1ccc(F)c(F)c1Nc1ccc(I)cc1F
% of control [3]: 99%

CCC(=O)N1CCN(c2ccc(-n3c(=O)ccc4cnc5ccc(-c6cnc7ccccc7c6)cc5c43)cc2C(F)(F)F)CC1
% of control [4]: 100%

N#Cc1cccc(-c2c[nH]c3ncnc(N4CCOCC4)c23)c1
% of control [5]: 52%

CNC(=O)Nc1ccc(-c2nc(N3CC4CCC(C3)O4)c3cnn(C4CCC5(CC4)OCCO5)c3n2)cc1
% of inhibition [6]: 0%

Reference: ChEMBL document CHEMBL5465560, “Selectivity Literature for EUbOPEN Chemogenomic Library” (2024)
